Experimental findings from ChEMBL document CHEMBL3232957, “Some non-conventional biomolecular targets for diamidines. A short survey” (Bioorg Med Chem, 2014) are described below.

Assay [1] in a line: Binding affinity to r(CUG)6 (unknown origin) assessed as inhibition of RNA-MBNL1 interaction by quantitative TR-FRET assay.
The subject of assay [2] is Mus musculus. In words: Neuroprotective activity in Swiss mouse focal cerebral injury model assessed as reduction of ibotenate-induced lesion size in gray matter at 4 ug/kg. It is filed as functional. Also on record: scale not given: the % may be the effect or the level left.
Assay [3] deals with Mus musculus. Put plainly: Neuroprotective activity in Swiss mouse focal cerebral injury model assessed as reduction of ibotenate-induced lesion size in white matter at 4 ug/kg. Format: functional. Also on record: scale not given: the % may be the effect or the level left.
A short description of assay [4]: Inhibition of mouse hippocampal neurons ASIC transfected in CHO cells assessed as inhibition of acid-evoked current at -60 mV holding potential by two-electrode voltage-clamp electrophysiology assay. Format: cell-based. (Two-electrode voltage clamp is typically applied to oocytes expressing channels or transporters.)
In assay [5] the target is Glutamate [NMDA] receptor. Put plainly: Antagonist activity at NMDA receptor (unknown origin). Also on record: species or system Homo sapiens.
In assay [6] the target is T1, Diamine oxidase [copper-containing] (Homo sapiens, UniProt P19801).
T1 sequence (P19801 whole entry): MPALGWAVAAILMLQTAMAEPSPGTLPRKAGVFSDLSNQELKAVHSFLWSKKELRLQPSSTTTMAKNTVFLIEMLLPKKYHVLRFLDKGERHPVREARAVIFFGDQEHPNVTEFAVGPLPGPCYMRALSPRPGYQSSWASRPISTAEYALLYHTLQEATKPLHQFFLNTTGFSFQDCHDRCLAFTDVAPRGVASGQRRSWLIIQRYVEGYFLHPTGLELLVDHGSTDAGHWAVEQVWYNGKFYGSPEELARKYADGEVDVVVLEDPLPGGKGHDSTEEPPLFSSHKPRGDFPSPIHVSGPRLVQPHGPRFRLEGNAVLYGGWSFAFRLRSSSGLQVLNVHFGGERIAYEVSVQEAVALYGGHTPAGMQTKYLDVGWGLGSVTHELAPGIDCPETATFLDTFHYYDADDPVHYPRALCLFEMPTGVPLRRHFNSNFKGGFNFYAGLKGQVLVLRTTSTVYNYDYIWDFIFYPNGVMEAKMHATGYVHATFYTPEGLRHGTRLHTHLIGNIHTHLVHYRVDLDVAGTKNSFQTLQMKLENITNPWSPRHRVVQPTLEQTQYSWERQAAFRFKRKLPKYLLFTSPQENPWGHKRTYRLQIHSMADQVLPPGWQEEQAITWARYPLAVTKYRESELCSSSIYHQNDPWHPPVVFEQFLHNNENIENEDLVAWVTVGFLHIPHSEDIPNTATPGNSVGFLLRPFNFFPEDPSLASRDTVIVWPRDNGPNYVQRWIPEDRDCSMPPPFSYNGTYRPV
Put plainly: Mixed type inhibition of recombinant human DAO expressed in drosophila S2 cells. It is filed as cell-based.

Assay [7] can be described thus: Inhibition of mouse polyamine oxidase assessed as conversion of N-acetylspermine to […].
The target in assay [8] is Diamine acetyltransferase 1 (Homo sapiens, UniProt P21673). In words: Inhibition of human SSAT using spermidine as substrate.
Sequence of Diamine acetyltransferase 1 (P21673 whole entry): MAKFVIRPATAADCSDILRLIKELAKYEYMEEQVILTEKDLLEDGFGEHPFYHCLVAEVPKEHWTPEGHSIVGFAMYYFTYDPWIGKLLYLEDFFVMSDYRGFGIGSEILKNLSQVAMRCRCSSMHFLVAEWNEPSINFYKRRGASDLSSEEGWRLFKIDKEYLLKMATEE
Assay [9] can be described thus: Antiproliferative activity against human C8146A cells assessed as growth inhibition. Format: functional, cell-based.
The species entered for assay [10] is Homo sapiens. Put plainly: Inhibition of human KIR2.X channel assessed as remaining inward current at 0.2 uM; values are per cent of control.
Assay [11] is filed under the species Homo sapiens. Put plainly: Inhibition of human KIR2.X channel assessed as remaining outward current at 0.2 uM; values are per cent of control.
Assay [12] deals with Glutamate NMDA receptor; GRIN1/GRIN2A (Homo sapiens, UniProt Q05586+Q12879). Put plainly: Antagonist activity at NR1/NR2A receptor (unknown origin) expressed in Xenopus laevis oocytes assessed as inhibition of glutamate/glycine-induced current at pH 7.6 at -40mV holding potential by two-electrode voltage-clamp electrophysiology. Format: cell-based.
Sequence of Glutamate NMDA receptor; GRIN1/GRIN2A (Q12879 whole entry, other chains not shown): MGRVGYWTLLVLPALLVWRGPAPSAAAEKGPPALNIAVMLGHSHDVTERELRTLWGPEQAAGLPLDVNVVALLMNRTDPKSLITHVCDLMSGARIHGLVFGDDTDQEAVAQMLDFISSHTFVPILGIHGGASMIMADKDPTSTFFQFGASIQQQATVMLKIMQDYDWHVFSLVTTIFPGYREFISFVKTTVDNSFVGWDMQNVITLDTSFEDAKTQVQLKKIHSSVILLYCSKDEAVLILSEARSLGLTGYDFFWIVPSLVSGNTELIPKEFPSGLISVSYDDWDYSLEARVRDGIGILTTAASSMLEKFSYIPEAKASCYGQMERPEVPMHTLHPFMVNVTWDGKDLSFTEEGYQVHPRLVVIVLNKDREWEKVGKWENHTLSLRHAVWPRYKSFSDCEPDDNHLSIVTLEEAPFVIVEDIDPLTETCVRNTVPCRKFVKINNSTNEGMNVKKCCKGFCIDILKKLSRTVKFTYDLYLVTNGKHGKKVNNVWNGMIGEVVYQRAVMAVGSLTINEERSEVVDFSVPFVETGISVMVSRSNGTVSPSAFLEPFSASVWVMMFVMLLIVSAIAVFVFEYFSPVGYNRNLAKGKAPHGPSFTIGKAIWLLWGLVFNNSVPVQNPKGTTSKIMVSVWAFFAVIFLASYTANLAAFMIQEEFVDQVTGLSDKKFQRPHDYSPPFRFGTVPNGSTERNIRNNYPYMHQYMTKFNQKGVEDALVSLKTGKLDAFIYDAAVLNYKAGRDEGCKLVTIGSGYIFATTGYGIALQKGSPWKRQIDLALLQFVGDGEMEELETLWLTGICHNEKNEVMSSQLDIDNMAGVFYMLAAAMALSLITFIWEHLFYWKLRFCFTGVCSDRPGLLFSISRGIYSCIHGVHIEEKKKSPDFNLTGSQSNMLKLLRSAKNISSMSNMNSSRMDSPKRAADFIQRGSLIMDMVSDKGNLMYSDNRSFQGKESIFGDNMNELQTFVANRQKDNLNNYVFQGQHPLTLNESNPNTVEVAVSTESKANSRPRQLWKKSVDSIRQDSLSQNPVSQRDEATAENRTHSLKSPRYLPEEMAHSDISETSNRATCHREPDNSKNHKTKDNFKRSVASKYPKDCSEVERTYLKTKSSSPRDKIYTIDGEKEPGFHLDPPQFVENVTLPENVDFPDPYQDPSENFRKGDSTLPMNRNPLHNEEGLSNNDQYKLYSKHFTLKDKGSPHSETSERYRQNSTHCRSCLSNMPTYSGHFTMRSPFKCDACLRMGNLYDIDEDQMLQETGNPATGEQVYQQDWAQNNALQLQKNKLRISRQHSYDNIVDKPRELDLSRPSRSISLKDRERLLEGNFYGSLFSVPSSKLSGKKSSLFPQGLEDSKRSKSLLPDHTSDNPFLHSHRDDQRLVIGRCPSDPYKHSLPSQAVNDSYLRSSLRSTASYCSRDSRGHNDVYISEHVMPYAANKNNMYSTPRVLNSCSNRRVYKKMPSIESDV
In assay [13] the target is T2, Acid-sensing ion channel 1 (Mus musculus) (UniProt Q6NXK8).
T2 sequence (whole entry): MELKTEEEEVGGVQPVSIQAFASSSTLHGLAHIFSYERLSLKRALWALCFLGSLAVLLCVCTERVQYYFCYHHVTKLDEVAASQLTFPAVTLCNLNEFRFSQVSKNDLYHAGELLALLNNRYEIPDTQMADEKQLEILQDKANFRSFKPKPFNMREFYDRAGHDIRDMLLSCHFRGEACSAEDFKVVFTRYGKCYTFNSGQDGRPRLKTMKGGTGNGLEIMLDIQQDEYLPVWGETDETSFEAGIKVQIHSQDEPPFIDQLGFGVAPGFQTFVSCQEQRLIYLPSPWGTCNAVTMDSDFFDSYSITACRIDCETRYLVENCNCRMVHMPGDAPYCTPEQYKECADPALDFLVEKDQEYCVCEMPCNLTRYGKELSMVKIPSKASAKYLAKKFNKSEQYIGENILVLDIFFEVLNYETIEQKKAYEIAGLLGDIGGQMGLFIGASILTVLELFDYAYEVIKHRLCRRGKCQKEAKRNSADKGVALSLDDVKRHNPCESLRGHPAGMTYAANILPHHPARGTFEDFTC
In words: Inhibition of mouse hippocampal neurons ASIC1a transfected in CHO cells assessed as reduction of acid-evoked current at 3 uM at -60 mV holding potential by two-electrode voltage-clamp electrophysiology assay. Format: cell-based.

In assay [14] the target is T2, Acid-sensing ion channel 1 (Mus musculus). In words: Inhibition of mouse hippocampal neurons ASIC1b transfected in CHO cells assessed as reduction of acid-evoked current at 3 uM at -60 mV holding potential by two-electrode voltage-clamp electrophysiology assay. Format: cell-based.
In assay [15] the target is T3, Acid-sensing ion channel 2 (Mus musculus) (UniProt Q925H0).
T3 sequence (whole entry): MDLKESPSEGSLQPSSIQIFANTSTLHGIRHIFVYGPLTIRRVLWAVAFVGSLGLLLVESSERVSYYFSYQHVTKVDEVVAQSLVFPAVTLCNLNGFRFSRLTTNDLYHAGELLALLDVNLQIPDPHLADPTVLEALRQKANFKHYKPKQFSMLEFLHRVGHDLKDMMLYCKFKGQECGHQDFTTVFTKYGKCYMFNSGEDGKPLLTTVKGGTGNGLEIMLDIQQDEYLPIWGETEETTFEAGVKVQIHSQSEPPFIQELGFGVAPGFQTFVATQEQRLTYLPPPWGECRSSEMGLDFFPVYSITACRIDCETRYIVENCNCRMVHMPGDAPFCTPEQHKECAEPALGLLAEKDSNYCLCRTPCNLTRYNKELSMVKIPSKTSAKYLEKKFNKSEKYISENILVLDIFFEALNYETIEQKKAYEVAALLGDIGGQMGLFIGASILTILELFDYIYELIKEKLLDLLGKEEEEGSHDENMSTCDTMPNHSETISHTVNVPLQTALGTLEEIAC
In words: Inhibition of mouse hippocampal neurons ASIC2a transfected in CHO cells assessed as reduction of acid-evoked current at 3 uM at -60 mV holding potential by two-electrode voltage-clamp electrophysiology assay. It is filed as cell-based.

Assay [16] deals with T4, Acid-sensing ion channel 3 (Mus musculus) (UniProt Q6X1Y6).
T4 sequence (whole entry): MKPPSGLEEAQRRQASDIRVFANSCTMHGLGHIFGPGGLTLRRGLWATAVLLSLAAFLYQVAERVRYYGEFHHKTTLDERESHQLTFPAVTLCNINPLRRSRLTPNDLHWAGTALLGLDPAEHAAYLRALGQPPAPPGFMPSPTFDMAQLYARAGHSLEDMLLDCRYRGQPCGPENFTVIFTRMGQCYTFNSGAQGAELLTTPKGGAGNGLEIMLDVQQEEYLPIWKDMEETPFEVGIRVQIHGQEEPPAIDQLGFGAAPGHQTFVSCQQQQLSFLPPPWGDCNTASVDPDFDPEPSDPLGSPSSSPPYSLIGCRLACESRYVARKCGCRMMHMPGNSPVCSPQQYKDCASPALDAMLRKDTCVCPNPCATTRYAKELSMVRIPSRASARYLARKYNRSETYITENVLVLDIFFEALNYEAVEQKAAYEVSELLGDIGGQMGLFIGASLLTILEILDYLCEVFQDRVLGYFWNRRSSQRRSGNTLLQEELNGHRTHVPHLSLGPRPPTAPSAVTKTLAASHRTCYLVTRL
Put plainly: Inhibition of mouse hippocampal neurons ASIC3 transfected in CHO cells assessed as reduction of acid-evoked current at 3 uM at -60 mV holding potential by two-electrode voltage-clamp electrophysiology assay. It is filed as cell-based.

For orientation: IC50 means the concentration needed to halve the response being measured. Regarding `N=C(N)c1ccc(NC(=O)c2ccc(C(=O)Nc3ccc(C(=N)N)cc3)c(N)c2)cc1`, the IC50 in assay [1] was 10 µM.
For `N=C(N)c1ccc(NCCNc2ccc(C(=N)N)cc2)cc1`, the figures for the Activity in the assay on Mus musculus [2] and with Mus musculus [3] were 49% and 69%, respectively.
As for `N=C(N)c1ccc(-c2cc3ccc(C(=N)N)cc3[nH]2)cc1` [DAPI], in assay [4], the IC50 was 2.8 µM.
For `N=C(N)c1ccc(N2CCCN(c3ccc(C(=N)N)cc3)CC2)cc1`, in [5], the IC50 was determined as 1.19 µM.
Broadly, the Ki is the dissociation constant of the complex between target and ligand, obtained from inhibition or displacement. `N=C(N)c1ccc(/N=N/Nc2ccc(C(=N)N)cc2)cc1` [DIMINAZENE]: the IC50 in [4] was determined as 0.3 µM. Further, the Ki in assay [6] amounted to 0.013 µM; in assay [7], 120 µM; in assay [8], 2.4 µM.
In the case of `N=C(N)c1ccc(OCCOc2cccc(N)c2)cc1`, the IC50 in assay [1] stood at 250 µM.
Regarding `CC(C)(C)NC(=O)c1cccc(N2C(=O)c3ccc(C(=O)O)cc3C2=O)c1`, the IC50 in assay [9] was over 100 µM.
The same measure, in the same setting: for `Cc1c(NS(=O)(=O)c2ccc(NC(=O)CCC(=O)O)cc2)c(=O)n(-c2ccccc2)n1C` the value was over 100 µM; for `Cc1cc(C)c(N2C(=O)c3ccc(C(=O)Nc4cc(C(=O)O)cc(C(=O)O)c4)cc3C2=O)c(C)c1`, 44 µM; for `N=C(N)NC(=N)Nc1cccc(Cl)c1Cl`, 8 µM.
Take `N=C(N)c1ccc(/C=C/c2ccc(C(=N)N)cc2O)cc1` [HYDROXYSTILBAMIDINE]: in [4], the IC50 amounted to 1.5 µM.
The residual activity is the activity still measured, relative to the control. In the case of `N=C(Nc1ccc(OCCCCCOc2ccc(NC(=N)c3ccccc3)cc2)cc1)c1ccccc1`, the figures for the residual activity in the assay filed under Homo sapiens [10] and in the assay filed under Homo sapiens [11] were 86.6% and 12.1%, respectively.
As to `CNC1(c2ccccc2Cl)CCCCC1=O` (stereo not drawn) [KETAMINE], the IC50 in assay [12] was found to be 3.31 µM.
For `N=C(N)NC(=N)Nc1ccc(Cl)cc1C(=O)c1ccccc1`, in assay [9], the IC50 was found to be 12 µM.
A word on the inhibition: it is how much of the control response was suppressed. As to `N=C(N)c1ccc(OCCCCCOc2ccc(C(=N)N)cc2)cc1` [PENTAMIDINE], the IC50 in assay [12] is 0.72 µM; in [4] it was 38 µM; in assay [1] it was over 1000 µM; in assay [9], 1.2 µM. The inhibition amounted to 39% in [13], 92% in [14], 51% in assay [15] and 74% in assay [16]. Besides, the Ki came to 0.29 µM in assay [6], 7.6 µM in assay [7] and 2 µM in [8]. For the same molecule, the figures for the residual activity in the assay filed under Homo sapiens [10] and in the assay filed under Homo sapiens [11] were 48.2% and 10.8%, respectively.
Regarding `CN1CC[C@@]23CCCC[C@@H]2[C@@H]1Cc1ccc(O)cc13` [DEXTRORPHAN], in [12], the IC50 was 1.3 µM.
